Results from ChEMBL document CHEMBL3638579, “Arylamino purine derivatives, preparation method and pharmaceutical use thereof” (2015).

Target: Vascular endothelial growth factor receptor 2 (Homo sapiens, UniProt P35968)
Test: Inhibition Assay: The object of this assay was to test the inventive compounds for the kinase inhibitory activity in vitro. In this assay, an isotopic labeling method was used to label the gamma phosphate group on ATP. EGFR (including wild type, L858R mutant type and L858R/T790M double mutant type), VEGFR2, ALK, BTK, c-KIT, c-SRC, MET, PDGFRalpha and FLT3 kinases were tested in vitro for the activity inhibition. Staurosporine was used as a reference molecule (or referred to as a positive control). […] The IC50 value can be obtained by the calculation of the inhibitory rates at a series of different concentrations of the tested compounds. 1. Materials: 20mM 3-(N-morpholinyl)propylsulfonic acid (MOPS); 1mM Ethylenediaminetetraacetic acid (EDTA); 0.01% Polyethylene glycol lauryl ether (Brij-35).

Sequence of Vascular endothelial growth factor receptor 2 (P35968 20-1356 limits assumed, stated change not applied): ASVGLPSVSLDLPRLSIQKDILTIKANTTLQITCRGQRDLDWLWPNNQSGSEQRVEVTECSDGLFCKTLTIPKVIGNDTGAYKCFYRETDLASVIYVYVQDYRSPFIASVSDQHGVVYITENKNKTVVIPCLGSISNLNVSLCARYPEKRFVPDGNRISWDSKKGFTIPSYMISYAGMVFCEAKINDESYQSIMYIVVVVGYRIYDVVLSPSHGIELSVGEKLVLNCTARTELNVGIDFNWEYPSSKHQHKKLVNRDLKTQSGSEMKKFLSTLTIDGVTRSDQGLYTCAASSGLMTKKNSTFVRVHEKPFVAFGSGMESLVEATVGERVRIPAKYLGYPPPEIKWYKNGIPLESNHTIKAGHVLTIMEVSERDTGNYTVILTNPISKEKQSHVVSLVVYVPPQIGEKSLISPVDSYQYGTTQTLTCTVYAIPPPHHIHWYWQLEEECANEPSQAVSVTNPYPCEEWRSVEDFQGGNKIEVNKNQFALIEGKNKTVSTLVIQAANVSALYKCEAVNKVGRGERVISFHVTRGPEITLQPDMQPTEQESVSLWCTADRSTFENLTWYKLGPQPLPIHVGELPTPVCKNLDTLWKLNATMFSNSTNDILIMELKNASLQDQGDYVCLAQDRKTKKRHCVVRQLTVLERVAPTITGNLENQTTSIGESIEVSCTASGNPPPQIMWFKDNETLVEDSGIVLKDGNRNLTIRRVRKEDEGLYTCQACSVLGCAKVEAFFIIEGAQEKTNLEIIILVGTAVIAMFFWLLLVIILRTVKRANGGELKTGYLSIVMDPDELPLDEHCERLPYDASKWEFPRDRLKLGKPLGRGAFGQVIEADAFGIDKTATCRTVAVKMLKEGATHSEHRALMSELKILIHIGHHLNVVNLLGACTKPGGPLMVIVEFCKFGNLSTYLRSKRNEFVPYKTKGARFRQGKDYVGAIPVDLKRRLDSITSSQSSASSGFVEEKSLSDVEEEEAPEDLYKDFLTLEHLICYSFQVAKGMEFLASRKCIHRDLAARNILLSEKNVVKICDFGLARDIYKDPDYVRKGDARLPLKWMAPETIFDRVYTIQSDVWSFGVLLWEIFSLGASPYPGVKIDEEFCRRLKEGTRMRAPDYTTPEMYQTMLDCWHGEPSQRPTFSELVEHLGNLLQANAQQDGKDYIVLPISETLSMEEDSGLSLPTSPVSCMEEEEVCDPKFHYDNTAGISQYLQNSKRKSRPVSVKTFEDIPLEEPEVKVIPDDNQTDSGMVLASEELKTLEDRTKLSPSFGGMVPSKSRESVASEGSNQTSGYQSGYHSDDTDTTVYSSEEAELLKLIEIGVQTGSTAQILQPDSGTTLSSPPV

IC50: > 1 µM
SMILES: CC(C)n1c(Nc2ccccc2)nc2cnc(Nc3ccc(C(=O)NN4CCN(C)CC4)cc3F)nc21
